According to the kinase profiling compilation of Christmann-Franck et al. (2016):

Tests used:
Experiment in all cases: radiometric filter-binding kinase assay, Kinase HotSpot
Details in all cases: compound 0.5 µM; ATP 10 µM
ACVR1B (human) = ACVR1B (human) (UniProt P36896)
AKT3 (human) = AKT3 (human) (UniProt Q9Y243)
AURKC (human) = AURKC (human) (UniProt Q9UQB9)
AXL (human) = AXL (human) (UniProt P30530)
BTK (human) = BTK (human) (UniProt Q06187)
CAMK1D (human) = CAMK1D (human) (UniProt Q8IU85)
CAMK2A (human) = CAMK2A (human) (UniProt Q9UQM7)
CAMK2D (human) = CAMK2D (human) (UniProt Q13557)
CDK3 CCNE1 (human) = CDK3 CCNE1 (human) (UniProt Q00526+P24864)
CDK7 CCNH MNAT1 (human) = CDK7 CCNH MNAT1 (human) (UniProt P50613+P51948+P51946)
Sequence of CDK7 CCNH MNAT1 (human) (P50613 whole entry, looked up): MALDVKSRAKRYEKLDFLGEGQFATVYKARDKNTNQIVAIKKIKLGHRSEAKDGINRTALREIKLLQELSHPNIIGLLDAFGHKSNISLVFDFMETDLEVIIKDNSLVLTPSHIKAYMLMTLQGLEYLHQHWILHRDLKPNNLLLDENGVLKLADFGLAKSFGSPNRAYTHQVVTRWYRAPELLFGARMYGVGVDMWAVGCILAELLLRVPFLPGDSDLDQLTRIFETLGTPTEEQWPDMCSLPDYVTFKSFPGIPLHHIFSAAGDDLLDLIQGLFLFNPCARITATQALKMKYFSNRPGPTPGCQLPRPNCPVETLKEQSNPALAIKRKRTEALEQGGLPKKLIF
Sequence of CDK7 CCNH MNAT1 (human) (P51946 whole entry, looked up): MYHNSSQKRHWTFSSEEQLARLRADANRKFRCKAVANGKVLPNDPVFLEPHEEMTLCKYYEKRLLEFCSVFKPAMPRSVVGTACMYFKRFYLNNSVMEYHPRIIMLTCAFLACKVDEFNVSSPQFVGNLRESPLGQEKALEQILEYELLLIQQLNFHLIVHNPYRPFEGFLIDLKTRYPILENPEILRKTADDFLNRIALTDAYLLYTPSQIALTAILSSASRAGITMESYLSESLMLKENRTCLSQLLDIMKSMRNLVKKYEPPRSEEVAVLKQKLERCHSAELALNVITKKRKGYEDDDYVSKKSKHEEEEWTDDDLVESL
Sequence of CDK7 CCNH MNAT1 (human) (P51948 whole entry, looked up): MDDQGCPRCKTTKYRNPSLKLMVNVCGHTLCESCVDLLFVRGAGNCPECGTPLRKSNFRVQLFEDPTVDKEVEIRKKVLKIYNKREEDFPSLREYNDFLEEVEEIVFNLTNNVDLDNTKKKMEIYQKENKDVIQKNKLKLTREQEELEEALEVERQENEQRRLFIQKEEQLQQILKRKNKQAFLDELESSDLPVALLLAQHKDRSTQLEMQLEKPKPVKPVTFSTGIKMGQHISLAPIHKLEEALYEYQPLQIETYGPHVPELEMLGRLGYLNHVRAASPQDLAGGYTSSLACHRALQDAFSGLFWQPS

CSNK1D (human) = CSNK1D (human) (UniProt P48730)
DAPK1 (human) = DAPK1 (human) (UniProt P53355)
DAPK2 (human) = DAPK2 (human) (UniProt Q9UIK4)
DYRK3 (human) = DYRK3 (human) (UniProt O43781)
Sequence of DYRK3 (human) (O43781 whole entry, looked up): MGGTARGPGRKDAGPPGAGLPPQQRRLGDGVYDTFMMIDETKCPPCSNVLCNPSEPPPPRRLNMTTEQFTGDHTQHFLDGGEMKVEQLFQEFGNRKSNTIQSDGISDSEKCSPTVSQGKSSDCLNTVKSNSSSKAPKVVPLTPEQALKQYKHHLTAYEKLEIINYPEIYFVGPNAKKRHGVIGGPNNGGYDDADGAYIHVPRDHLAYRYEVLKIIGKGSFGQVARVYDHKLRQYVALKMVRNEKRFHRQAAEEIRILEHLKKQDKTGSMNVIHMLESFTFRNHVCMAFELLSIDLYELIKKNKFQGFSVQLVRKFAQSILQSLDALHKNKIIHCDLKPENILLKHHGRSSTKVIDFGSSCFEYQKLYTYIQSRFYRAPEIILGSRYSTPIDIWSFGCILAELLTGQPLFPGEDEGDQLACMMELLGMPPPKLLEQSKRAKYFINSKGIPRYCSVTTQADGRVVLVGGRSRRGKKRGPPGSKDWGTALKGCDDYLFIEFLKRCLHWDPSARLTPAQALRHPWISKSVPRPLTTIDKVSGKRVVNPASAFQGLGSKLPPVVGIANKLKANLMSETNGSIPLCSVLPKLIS

EPHA4 (human) = EPHA4 (human) (UniProt P54764)
FES (human) = FES (human) (UniProt P07332)
INSRR (human) = INSRR (human) (UniProt P14616)
LIMK1 (human) = LIMK1 (human) (UniProt P53667)
MAP3K2 (human) = MAP3K2 (human) (UniProt Q9Y2U5)
MAP3K5 (human) = MAP3K5 (human) (UniProt Q99683)
MAP3K7 TAB1 (human) = MAP3K7 TAB1 (human) (UniProt O43318+Q15750)
MAP3K9 (human) = MAP3K9 (human) (UniProt P80192)
MAP4K4 (human) = MAP4K4 (human) (UniProt O95819)
MAPK12 (human) = MAPK12 (human) (UniProt P53778)
Sequence of MAPK12 (human) (P53778 whole entry, looked up): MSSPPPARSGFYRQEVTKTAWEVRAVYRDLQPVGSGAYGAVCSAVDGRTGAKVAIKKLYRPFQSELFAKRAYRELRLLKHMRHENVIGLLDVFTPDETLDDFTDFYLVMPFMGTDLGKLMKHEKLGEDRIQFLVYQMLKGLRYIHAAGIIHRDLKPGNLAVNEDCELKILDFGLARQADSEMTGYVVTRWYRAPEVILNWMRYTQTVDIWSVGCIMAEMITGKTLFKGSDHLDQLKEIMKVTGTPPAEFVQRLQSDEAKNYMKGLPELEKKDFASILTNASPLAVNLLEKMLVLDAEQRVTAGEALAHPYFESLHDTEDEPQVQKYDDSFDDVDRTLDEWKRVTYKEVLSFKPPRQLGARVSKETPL

NEK3 (human) = NEK3 (human) (UniProt P51956)
Sequence of NEK3 (human) (P51956 whole entry, looked up): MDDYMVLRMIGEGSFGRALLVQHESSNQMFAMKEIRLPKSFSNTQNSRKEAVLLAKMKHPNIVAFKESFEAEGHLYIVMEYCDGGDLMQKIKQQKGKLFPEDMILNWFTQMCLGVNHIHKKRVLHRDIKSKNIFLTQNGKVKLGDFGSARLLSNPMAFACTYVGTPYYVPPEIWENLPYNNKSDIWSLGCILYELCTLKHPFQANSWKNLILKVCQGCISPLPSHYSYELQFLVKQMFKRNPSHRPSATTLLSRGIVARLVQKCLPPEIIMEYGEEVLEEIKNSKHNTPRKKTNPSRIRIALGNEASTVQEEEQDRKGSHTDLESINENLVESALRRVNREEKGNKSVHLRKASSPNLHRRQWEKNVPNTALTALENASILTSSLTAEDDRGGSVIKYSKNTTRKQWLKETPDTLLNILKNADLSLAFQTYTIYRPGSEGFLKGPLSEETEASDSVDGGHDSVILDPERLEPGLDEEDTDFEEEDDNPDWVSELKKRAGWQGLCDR

PASK (human) = PASK (human) (UniProt Q96RG2)
PDGFRB (human) = PDGFRB (human) (UniProt P09619)
Sequence of PDGFRB (human) (P09619 whole entry, looked up): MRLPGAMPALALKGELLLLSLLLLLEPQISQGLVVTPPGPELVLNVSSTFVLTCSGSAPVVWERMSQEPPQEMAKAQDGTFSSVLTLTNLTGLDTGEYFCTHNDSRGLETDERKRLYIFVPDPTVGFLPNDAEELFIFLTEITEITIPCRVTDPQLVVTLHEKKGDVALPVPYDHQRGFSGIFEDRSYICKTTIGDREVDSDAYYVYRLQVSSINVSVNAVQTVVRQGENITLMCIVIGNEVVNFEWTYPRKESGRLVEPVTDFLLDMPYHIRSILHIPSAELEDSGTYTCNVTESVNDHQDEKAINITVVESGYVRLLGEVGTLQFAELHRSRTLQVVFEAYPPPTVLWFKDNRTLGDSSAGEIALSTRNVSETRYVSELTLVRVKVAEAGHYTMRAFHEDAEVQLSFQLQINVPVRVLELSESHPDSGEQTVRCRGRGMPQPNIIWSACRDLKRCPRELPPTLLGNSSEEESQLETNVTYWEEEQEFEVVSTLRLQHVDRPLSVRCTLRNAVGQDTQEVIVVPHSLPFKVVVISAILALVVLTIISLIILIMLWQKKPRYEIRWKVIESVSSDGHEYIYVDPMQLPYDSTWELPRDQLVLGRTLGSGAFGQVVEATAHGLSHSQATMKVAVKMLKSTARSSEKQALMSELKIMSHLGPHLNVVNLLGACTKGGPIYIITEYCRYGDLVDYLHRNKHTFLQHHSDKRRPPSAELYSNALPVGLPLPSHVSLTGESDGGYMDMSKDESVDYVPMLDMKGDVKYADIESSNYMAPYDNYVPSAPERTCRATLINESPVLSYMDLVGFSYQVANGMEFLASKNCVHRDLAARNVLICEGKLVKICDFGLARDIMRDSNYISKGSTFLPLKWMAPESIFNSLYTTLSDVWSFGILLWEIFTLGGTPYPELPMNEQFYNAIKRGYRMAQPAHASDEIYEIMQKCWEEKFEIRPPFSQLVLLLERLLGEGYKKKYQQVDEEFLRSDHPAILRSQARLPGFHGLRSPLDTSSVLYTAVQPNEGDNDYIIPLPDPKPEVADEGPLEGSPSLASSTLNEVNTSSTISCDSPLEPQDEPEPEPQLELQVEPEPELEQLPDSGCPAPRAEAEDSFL

PHKG1 (human) = PHKG1 (human) (UniProt Q16816)
PRKCD (human) = PRKCD (human) (UniProt Q05655)
PRKD2 (human) = PRKD2 (human) (UniProt Q9BZL6)
PRKG2 (human) = PRKG2 (human) (UniProt Q13237)
PTK2 (human) = PTK2 (human) (UniProt Q05397)
RIPK2 (human) = RIPK2 (human) (UniProt O43353)
RPS6KA2 KD1 KD2 (human) = RPS6KA2 KD1 KD2 (human) (UniProt Q15349)
RPS6KB1 (human) = RPS6KB1 (human) (UniProt P23443)
Sequence of RPS6KB1 (human) (P23443 whole entry, looked up): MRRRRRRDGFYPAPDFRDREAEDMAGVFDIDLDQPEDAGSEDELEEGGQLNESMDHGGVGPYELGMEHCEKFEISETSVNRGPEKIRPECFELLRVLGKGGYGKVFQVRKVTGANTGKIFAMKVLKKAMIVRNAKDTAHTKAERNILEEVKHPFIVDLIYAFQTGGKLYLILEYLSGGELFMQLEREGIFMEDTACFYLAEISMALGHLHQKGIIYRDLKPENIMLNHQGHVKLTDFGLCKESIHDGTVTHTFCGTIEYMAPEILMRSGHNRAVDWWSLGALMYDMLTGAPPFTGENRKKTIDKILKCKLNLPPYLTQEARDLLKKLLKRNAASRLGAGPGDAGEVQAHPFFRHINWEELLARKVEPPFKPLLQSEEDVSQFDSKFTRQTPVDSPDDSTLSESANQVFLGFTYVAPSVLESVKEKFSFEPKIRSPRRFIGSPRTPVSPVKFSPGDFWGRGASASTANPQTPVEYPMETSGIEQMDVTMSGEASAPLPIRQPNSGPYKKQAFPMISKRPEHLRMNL

SRPK2 (human) = SRPK2 (human) (UniProt P78362)
STK16 (human) = STK16 (human) (UniProt O75716)
Sequence of STK16 (human) (O75716 whole entry, looked up): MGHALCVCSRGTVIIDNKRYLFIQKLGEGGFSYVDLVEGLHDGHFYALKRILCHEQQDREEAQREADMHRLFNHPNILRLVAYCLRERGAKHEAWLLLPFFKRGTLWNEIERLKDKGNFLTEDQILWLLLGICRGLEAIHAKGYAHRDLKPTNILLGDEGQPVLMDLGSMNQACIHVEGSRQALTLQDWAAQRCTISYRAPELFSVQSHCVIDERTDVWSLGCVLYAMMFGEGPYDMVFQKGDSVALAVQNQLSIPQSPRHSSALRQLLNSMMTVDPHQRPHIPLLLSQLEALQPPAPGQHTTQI

STK24 (human) = STK24 (human) (UniProt Q9Y6E0)
SYK (human) = SYK (human) (UniProt P43405)
TAOK1 (human) = TAOK1 (human) (UniProt Q7L7X3)
TGFBR2 (human) = TGFBR2 (human) (UniProt P37173)
VRK1 (human) = VRK1 (human) (UniProt Q99986)
Sequence of VRK1 (human) (Q99986 whole entry, looked up): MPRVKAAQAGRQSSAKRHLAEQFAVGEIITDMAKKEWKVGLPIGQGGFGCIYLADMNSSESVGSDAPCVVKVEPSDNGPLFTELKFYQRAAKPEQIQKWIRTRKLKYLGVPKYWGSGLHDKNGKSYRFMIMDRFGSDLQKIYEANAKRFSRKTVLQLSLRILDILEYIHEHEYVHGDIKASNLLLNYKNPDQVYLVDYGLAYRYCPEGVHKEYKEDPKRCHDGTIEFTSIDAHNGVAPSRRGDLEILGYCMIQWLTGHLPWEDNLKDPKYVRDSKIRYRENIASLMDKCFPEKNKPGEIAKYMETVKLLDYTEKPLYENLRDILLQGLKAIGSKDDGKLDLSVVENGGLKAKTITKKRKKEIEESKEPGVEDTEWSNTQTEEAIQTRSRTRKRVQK

`Nc1nnc2[nH]c3ccccc3nc1-2` showed a residual activity (ACVR1B (human)) of 99.9%, a residual activity (AKT3 (human)) of 95.3% and a residual activity (AURKC (human)) of 90.8%. It also gave a residual activity (AXL (human)) of 91.3%, a residual activity (BTK (human)) of 93.9% and a residual activity (CAMK1D (human)) of 98.3%. It also gave a residual activity (CAMK2A (human)) of 99.5%, a residual activity (CAMK2D (human)) of 89.4% and a residual activity (CDK3 CCNE1 (human)) of 93.1%. For the same compound, the residual activity (CDK7 CCNH MNAT1 (human)) was 98%, the residual activity (CSNK1D (human)) was 94.2% and the residual activity (DAPK1 (human)) was 91.5%. For the same compound, the residual activity (DAPK2 (human)) was 91%, the residual activity (DYRK3 (human)) was 102% and the residual activity (EPHA4 (human)) was 86.5%. The residual activity (FES (human)) was 96.8%, the residual activity (INSRR (human)) was 89.3% and the residual activity (LIMK1 (human)) was 105%. The residual activity (MAP3K2 (human)) was 92.6%, the residual activity (MAP3K5 (human)) was 103% and the residual activity (MAP3K7 TAB1 (human)) was 100%. The residual activity (MAP3K9 (human)) was 97.7%, the residual activity (MAP4K4 (human)) was 76.2% and the residual activity (MAPK12 (human)) was 100%. It also gave a residual activity (NEK3 (human)) of 94.9%, a residual activity (PASK (human)) of 93.7% and a residual activity (PDGFRB (human)) of 98.1%. For the same compound, the residual activity (PHKG1 (human)) was 86.9%, the residual activity (PRKCD (human)) was 98.3% and the residual activity (PRKD2 (human)) was 94.5%. The residual activity (PRKG2 (human)) was 66.7%, the residual activity (PTK2 (human)) was 94.6% and the residual activity (RIPK2 (human)) was 81.1%. For the same compound, the residual activity (RPS6KA2 KD1 KD2 (human)) was 89.1%, the residual activity (RPS6KB1 (human)) was 99.8% and the residual activity (SRPK2 (human)) was 95.9%. The residual activity (STK16 (human)) was 91.9%, the residual activity (STK24 (human)) was 89.1% and the residual activity (SYK (human)) was 100%. For the same compound, the residual activity (TAOK1 (human)) was 101%, the residual activity (TGFBR2 (human)) was 82.4% and the residual activity (VRK1 (human)) was 103%.

Compound `O=C1NC(=O)C(c2cn(CCCO)c3ncccc23)=C1c1cnccn1` has a residual activity (ACVR1B (human)) of 100%, a residual activity (AKT3 (human)) of 101% and a residual activity (AURKC (human)) of 113%. For the same compound, the residual activity (AXL (human)) was 104%, the residual activity (BTK (human)) was 93.7% and the residual activity (CAMK1D (human)) was 95.1%. The residual activity (CAMK2A (human)) was 108%, the residual activity (CAMK2D (human)) was 101% and the residual activity (CDK3 CCNE1 (human)) was 89.4%. It also gave a residual activity (CDK7 CCNH MNAT1 (human)) of 96.9%, a residual activity (CSNK1D (human)) of 99.4% and a residual activity (DAPK1 (human)) of 74.4%. For the same compound, the residual activity (DAPK2 (human)) was 88.4%, the residual activity (DYRK3 (human)) was 79.6% and the residual activity (EPHA4 (human)) was 99.5%. For the same compound, the residual activity (FES (human)) was 121%, the residual activity (INSRR (human)) was 93.2% and the residual activity (LIMK1 (human)) was 96.4%. The residual activity (MAP3K2 (human)) was 96.9%, the residual activity (MAP3K5 (human)) was 88.9% and the residual activity (MAP3K7 TAB1 (human)) was 95.5%. For the same compound, the residual activity (MAP3K9 (human)) was 85.5%, the residual activity (MAP4K4 (human)) was 36.4% and the residual activity (MAPK12 (human)) was 86.8%. For the same compound, the residual activity (NEK3 (human)) was 97.5%, the residual activity (PASK (human)) was 97.1% and the residual activity (PDGFRB (human)) was 102%. The residual activity (PHKG1 (human)) was 87.2%, the residual activity (PRKCD (human)) was 97% and the residual activity (PRKD2 (human)) was 118%. For the same compound, the residual activity (PRKG2 (human)) was 118%, the residual activity (PTK2 (human)) was 101% and the residual activity (RIPK2 (human)) was 90.9%. For the same compound, the residual activity (RPS6KA2 KD1 KD2 (human)) was 73.2%, the residual activity (RPS6KB1 (human)) was 90.2% and the residual activity (SRPK2 (human)) was 97.9%. For the same compound, the residual activity (STK16 (human)) was 90.3%, the residual activity (STK24 (human)) was 72.1% and the residual activity (SYK (human)) was 60%. The residual activity (TAOK1 (human)) was 132%, the residual activity (TGFBR2 (human)) was 122% and the residual activity (VRK1 (human)) was 86.4%.

`Cc1nc2cc3nc(-c4cccs4)cnc3cc2n1C` showed a residual activity (ACVR1B (human)) of 104%, a residual activity (AKT3 (human)) of 112% and a residual activity (AURKC (human)) of 93.3%. It also gave a residual activity (AXL (human)) of 109%, a residual activity (BTK (human)) of 101% and a residual activity (CAMK1D (human)) of 107%. For the same compound, the residual activity (CAMK2A (human)) was 105%, the residual activity (CAMK2D (human)) was 100% and the residual activity (CDK3 CCNE1 (human)) was 93.6%. For the same compound, the residual activity (CDK7 CCNH MNAT1 (human)) was 102%, the residual activity (CSNK1D (human)) was 95.9% and the residual activity (DAPK1 (human)) was 99.5%. It also gave a residual activity (DAPK2 (human)) of 94.1%, a residual activity (DYRK3 (human)) of 111% and a residual activity (EPHA4 (human)) of 93.1%. It also gave a residual activity (FES (human)) of 106%, a residual activity (INSRR (human)) of 99.5% and a residual activity (LIMK1 (human)) of 112%. It also gave a residual activity (MAP3K2 (human)) of 90.2%, a residual activity (MAP3K5 (human)) of 98.9% and a residual activity (MAP3K7 TAB1 (human)) of 92.5%. It also gave a residual activity (MAP3K9 (human)) of 90.3%, a residual activity (MAP4K4 (human)) of 84.5% and a residual activity (MAPK12 (human)) of 103%. The residual activity (NEK3 (human)) was 108%, the residual activity (PASK (human)) was 110% and the residual activity (PDGFRB (human)) was 63.3%. The residual activity (PHKG1 (human)) was 98.2%, the residual activity (PRKCD (human)) was 78.6% and the residual activity (PRKD2 (human)) was 106%. The residual activity (PRKG2 (human)) was 87.7%, the residual activity (PTK2 (human)) was 117% and the residual activity (RIPK2 (human)) was 89.1%. For the same compound, the residual activity (RPS6KA2 KD1 KD2 (human)) was 95%, the residual activity (RPS6KB1 (human)) was 95% and the residual activity (SRPK2 (human)) was 104%. It also gave a residual activity (STK16 (human)) of 95.2%, a residual activity (STK24 (human)) of 103% and a residual activity (SYK (human)) of 94.3%. It also gave a residual activity (TAOK1 (human)) of 110%, a residual activity (TGFBR2 (human)) of 89.2% and a residual activity (VRK1 (human)) of 95.6%.
